Data reported in US10501748B2, “Methods and compositions for integration of an exogenous sequence within the genome of plants” (Dow AgroSciences LLC, priority 2013, dated 2019).

Tested on: protoplasts of SEC-derived cell suspension culture of cv. Bobwhite MPB26RH
Test: basal tolerance to IMAZAMOX of protoplast agarose bead-type cultures (calli growth)
Assay type: cell-based, Triticum aestivum
Conditions: 2 weeks
Source text: IMAZAMOX® selection conditions are optimized using protoplasts derived from somatic embryogenic callus (SEC)-derived cell suspension culture of the wheat line cv. Bobwhite MPB26RH. While protoplasts derived from Bobwhite MPB26RH are non-totipotent (i.e., cannot be used to regenerate entire plants), the selection conditions established for enriching for events expressing the AHAS (653N) mutation are expected to be transferable to any protoplast-based transformation system based on a totipotent wheat genotype, which those in the art would recognize. The experiments conducted establish the basal tolerance of the wild-type donor wheat line cv. Bobwhite MPB26RH (S653/S653 genotype, which confers susceptibility to imidazolinones) to IMAZAMOX®. The use of IMAZAMOX® selection conditions stronger than basal tolerance will strongly enrich for transformed cells expressing the AHAS (S653N) mutation.
Further transformation methods are applicable. For example a cell suspension culture for wheat line cv. Bobwhite MPB26RH can be established. Somatic embryogenic callus (SEC) is induced from immature zygotic embryos of wheat line cv. […]
The basal tolerance of wheat line cv. Bobwhite MPB26RH to IMAZAMOX® is determined by incubating the agarose bead-type cultures in media supplemented with 0, 50, 100, 200, 400 and 600 nM IMAZAMOX® and assessing the rate of calli growth after 2 weeks.

COCc1cnc(C2=NC(C)(C(C)C)C(=O)N2)c(C(=O)O)c1 (stereo not shown) [IMAZAMOX]
concentrations that impede calli development: higher than 200 nM
